Data taken from ChEMBL document CHEMBL5649166, “RIP3 induces apoptosis independent of pronecrotic kinase activity” (Mol Cell, 2014).

How the values were obtained:
[1] = target: Protein kinase C gamma type (Homo sapiens) (UniProt P05129); experiment: Inhibition of human PKCg using ERMRPRKRQGSVRRRV as substrate at 1 uM in presence of 32P-ATP by Hotspot assay relative to control; values are per cent of control
[2] = target: Tyrosine-protein kinase ABL1 (Homo sapiens) (UniProt P00519); experiment: Inhibition of human ABL1 using EAIYAAPFAKKK as substrate at 1 uM in presence of 32P-ATP by Hotspot assay relative to control; values are per cent of control
Sequence of Tyrosine-protein kinase ABL1 (Homo sapiens) (P00519 whole entry): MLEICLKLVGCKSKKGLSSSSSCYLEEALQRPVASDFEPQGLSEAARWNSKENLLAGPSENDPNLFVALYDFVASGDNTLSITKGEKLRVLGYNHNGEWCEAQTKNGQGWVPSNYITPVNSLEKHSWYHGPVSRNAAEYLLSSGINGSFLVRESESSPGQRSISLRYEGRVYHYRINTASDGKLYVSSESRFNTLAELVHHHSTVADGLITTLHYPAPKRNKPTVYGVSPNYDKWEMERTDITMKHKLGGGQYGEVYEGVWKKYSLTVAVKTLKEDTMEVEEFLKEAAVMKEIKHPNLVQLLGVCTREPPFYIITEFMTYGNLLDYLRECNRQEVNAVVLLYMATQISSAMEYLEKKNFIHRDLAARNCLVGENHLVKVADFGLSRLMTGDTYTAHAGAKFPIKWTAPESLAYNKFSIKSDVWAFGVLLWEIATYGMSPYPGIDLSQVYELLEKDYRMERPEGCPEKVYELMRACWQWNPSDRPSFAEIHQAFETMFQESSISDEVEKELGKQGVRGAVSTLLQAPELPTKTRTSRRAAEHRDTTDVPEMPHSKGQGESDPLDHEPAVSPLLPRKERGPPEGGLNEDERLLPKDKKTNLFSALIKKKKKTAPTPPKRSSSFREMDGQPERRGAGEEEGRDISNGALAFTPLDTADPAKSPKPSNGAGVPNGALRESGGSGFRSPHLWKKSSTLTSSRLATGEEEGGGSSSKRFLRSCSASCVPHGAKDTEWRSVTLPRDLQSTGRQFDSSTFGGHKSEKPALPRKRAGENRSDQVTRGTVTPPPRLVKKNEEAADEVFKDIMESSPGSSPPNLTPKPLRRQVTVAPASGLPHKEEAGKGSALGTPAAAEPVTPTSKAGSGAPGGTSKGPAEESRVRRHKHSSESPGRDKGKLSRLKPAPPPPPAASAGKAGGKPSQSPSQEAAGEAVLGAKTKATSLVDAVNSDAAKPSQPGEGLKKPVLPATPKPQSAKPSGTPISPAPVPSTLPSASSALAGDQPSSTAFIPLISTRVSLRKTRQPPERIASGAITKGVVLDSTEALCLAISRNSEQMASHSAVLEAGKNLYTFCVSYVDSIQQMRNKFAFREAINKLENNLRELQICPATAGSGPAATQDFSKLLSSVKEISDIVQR

[3] = target: T1, Mitogen-activated protein kinase kinase kinase 3 (Homo sapiens) (UniProt Q99759); experiment: Inhibition of human MEKK3 using myelin basic protein as substrate at 1 uM in presence of 32P-ATP by Hotspot assay relative to control; values are per cent of control
T1 sequence (whole entry): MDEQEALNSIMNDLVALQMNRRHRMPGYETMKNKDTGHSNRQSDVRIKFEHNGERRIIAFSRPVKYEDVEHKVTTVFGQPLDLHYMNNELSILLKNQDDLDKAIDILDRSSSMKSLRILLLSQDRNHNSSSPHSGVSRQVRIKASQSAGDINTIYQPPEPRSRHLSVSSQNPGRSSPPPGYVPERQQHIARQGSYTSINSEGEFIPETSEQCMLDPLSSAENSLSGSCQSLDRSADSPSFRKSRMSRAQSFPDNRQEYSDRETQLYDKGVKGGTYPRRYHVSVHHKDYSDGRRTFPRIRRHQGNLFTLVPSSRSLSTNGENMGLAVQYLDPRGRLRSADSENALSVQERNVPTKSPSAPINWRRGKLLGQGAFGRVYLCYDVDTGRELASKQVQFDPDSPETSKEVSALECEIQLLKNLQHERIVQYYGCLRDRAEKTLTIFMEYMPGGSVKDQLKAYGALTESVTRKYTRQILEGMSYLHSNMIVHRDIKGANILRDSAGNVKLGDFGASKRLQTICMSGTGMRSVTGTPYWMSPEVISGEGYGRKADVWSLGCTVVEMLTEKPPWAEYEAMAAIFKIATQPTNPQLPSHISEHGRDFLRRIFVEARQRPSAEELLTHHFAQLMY

[4] = target: Serine/threonine-protein kinase PLK2 (Homo sapiens) (UniProt Q9NYY3); experiment: Inhibition of human PLK2 using casein as substrate at 1 uM in presence of 32P-ATP by Hotspot assay relative to control; values are per cent of control
Sequence of Serine/threonine-protein kinase PLK2 (Homo sapiens) (Q9NYY3 whole entry, looked up): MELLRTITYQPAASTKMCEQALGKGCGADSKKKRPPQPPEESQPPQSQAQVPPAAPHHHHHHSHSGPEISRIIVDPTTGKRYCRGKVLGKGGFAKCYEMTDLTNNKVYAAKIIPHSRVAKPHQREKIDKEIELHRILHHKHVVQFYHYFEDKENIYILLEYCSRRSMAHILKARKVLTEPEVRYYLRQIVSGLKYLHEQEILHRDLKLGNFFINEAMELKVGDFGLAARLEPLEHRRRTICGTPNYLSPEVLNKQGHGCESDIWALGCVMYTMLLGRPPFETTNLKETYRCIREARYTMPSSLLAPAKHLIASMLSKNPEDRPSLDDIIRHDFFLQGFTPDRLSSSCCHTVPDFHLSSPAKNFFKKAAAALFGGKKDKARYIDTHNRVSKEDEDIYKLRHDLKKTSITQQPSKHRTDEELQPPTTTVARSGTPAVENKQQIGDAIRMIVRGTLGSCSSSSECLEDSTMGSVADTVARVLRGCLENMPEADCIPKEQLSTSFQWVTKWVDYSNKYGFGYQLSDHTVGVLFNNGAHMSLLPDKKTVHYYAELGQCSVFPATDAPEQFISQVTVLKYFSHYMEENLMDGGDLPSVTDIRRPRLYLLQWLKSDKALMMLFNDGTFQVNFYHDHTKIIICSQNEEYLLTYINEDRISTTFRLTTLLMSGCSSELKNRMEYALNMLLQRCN

[5] = target: T2, Inhibitor of nuclear factor kappa-B kinase subunit alpha (Homo sapiens) (UniProt O15111); experiment: Inhibition of human IKKa/CHUK using KKKKERLLDDRHDSGLDSMKDEE as substrate at 1 uM in presence of 32P-ATP by Hotspot assay relative to control; values are per cent of control
T2 sequence (whole entry): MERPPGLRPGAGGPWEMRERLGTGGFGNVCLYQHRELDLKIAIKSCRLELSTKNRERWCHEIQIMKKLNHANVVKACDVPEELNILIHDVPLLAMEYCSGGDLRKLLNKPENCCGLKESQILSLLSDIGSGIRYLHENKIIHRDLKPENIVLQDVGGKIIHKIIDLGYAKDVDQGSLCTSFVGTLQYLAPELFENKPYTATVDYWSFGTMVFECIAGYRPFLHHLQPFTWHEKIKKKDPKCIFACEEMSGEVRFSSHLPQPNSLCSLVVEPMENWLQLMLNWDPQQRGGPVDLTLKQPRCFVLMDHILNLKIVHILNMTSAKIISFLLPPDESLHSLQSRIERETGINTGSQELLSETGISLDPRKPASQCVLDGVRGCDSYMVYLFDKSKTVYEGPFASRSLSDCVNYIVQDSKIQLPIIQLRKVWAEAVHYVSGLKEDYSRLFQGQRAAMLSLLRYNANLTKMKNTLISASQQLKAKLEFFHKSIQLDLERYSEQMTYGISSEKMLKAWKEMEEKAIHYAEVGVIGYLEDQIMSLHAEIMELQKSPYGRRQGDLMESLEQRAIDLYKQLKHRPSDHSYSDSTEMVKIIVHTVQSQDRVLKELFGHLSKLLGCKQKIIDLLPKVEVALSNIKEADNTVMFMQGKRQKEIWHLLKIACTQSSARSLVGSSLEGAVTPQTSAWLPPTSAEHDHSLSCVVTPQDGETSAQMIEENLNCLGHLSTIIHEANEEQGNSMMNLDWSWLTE

[6] = target: Tyrosine-protein kinase Lyn (Homo sapiens) (UniProt P07948); experiment: Inhibition of human LYN using poly[Glu:Tyr] (4:1) as substrate at 1 uM in presence of 32P-ATP by Hotspot assay relative to control; values are per cent of control
Sequence of Tyrosine-protein kinase Lyn (Homo sapiens) (P07948 2-512 limits assumed): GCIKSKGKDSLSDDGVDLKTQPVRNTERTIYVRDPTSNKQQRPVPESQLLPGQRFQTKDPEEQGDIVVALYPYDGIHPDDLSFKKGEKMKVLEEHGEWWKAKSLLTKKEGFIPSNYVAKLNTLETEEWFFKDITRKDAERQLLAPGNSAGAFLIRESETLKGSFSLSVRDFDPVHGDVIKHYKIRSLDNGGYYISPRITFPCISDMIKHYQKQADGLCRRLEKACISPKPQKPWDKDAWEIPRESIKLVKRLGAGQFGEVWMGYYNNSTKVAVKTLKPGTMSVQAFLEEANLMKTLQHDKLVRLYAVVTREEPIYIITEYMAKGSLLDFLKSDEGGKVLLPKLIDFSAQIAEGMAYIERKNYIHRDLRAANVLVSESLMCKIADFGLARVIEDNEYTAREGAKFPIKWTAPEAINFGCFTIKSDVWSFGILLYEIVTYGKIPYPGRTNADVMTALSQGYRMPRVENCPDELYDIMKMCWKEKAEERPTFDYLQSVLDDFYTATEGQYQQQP

[7] = target: Serine/threonine-protein kinase PAK 1 (Homo sapiens) (UniProt Q13153); experiment: Inhibition of human PAK1 using RRRLSFAEPG as substrate at 1 uM in presence of 32P-ATP by Hotspot assay relative to control; values are per cent of control
Sequence of Serine/threonine-protein kinase PAK 1 (Homo sapiens) (Q13153 whole entry): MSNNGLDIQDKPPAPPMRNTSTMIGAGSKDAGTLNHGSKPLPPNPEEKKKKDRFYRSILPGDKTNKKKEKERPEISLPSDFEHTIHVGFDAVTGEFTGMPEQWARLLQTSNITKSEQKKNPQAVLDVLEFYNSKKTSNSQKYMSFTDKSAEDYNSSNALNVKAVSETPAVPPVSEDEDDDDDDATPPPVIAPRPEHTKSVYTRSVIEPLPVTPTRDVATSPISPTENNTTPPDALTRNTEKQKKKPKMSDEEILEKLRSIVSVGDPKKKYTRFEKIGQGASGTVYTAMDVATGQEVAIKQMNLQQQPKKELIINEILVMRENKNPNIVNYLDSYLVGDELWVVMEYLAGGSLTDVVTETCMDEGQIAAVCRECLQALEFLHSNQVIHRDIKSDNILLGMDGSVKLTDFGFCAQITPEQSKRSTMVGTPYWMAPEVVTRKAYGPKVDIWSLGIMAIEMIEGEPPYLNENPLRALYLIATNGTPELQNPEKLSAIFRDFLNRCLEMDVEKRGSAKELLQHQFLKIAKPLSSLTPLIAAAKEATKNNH

[8] = target: T3, Serine/threonine-protein kinase DCLK2 (Homo sapiens) (UniProt Q8N568); experiment: Inhibition of human DCAMKL2 using KKLNRTLSFAEPG as substrate at 1 uM in presence of 32P-ATP by Hotspot assay relative to control; values are per cent of control
T3 sequence (whole entry): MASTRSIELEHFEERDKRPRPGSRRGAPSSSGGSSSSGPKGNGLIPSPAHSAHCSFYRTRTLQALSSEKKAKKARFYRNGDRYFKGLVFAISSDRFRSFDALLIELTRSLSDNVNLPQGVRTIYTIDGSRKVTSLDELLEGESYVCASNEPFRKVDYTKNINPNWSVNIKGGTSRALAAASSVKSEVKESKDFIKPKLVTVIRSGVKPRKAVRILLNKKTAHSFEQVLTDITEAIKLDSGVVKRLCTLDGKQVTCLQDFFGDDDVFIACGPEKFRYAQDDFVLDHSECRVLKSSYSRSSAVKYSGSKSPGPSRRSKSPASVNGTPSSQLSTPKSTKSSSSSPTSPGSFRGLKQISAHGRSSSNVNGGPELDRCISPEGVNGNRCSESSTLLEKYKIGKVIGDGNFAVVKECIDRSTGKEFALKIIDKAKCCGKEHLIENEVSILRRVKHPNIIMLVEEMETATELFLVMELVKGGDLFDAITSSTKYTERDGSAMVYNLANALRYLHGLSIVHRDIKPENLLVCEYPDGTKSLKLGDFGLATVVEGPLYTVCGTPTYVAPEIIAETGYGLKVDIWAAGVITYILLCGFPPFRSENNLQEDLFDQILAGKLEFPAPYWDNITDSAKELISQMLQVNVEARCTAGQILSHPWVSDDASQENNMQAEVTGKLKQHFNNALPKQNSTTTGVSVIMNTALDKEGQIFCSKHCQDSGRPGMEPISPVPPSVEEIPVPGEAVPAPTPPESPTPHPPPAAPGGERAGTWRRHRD

Compound	residual activity [1] [%]	residual activity [2] [%]	residual activity [3] [%]	residual activity [4] [%]	residual activity [5] [%]	residual activity [6] [%]	residual activity [7] [%]	residual activity [8] [%]
Cc1cc(-c2cnc(N)c3c(-c4ccc5scnc5c4)csc23)n(C)n1	86.6	6.1	95	106	94.8	17	93.8	95.2
CC(C)S(=O)(=O)c1ccc2nccc(Nc3ccc4scnc4c3)c2c1	99.4	25.8	92.3	94.7	88.2	20	96.5	99.4
CNC(=O)c1ccc2c(c1)ncn2-c1ccc(CC(=O)OC(C)(C)C)cc1	85.7	92.7	96	99.1	89.9	73.5	95.9	98.6
